Measurements taken from US20210047441A1, “ANTHOCYANIDIN COMPLEX” (priority 2012, published 2021).

Columns and labels:
[1] = Solubility of delphinidin chloride in aqueous cyclodextrin solutions (Example 1); format: physicochemical; details: pure water, cyclodextrin concentration 0; stirred 20 hours at 30° C. in the dark, filtered 0.22 μm
Method: In this example, the complexing of delphinidin by various cyclodextrins and the solubility of the complex in aqueous solution are studied.
Neutral aqueous solutions comprising 10% by weight of the respective cyclodextrin were prepared.
In each case 5 ml of the aqueous cyclodextrin solutions and of pure water were introduced into glass flasks. An excess of delphinidin chloride was then added.
The suspensions were stirred for 20 hours at 30° C. in the dark. They were then filtered through a membrane filter of 0.22 μm pore size.

[2] = Stability tests in aqueous solution, 0.9% NaCl at 37° C. (Example 5); format: physicochemical; details: 0.9% NaCl solution, dark, start 1.584 mg/ml (complex), 0.0216 mg/ml (uncomplexed)
Method: In order to determine the content of delphinidin chloride in the delphinidin-containing solutions, a reverse phase HPLC process similar to that already described above was used. The following reagents were used thereby:
The delphinidin content was determined after 1, 2, 3 and 4 hours.
The determination of the delphinidin content in the samples was calculated with the aid of Agilent ChemStation software using calibration with the described external standard.

Oc1cc(O)c2cc(O)c(-c3cc(O)c(O)c(O)c3)[o+]c2c1.[Cl-] [Delphinidin chloride]
Achievable solubility, Delphinidin chloride [1]: 0.07 mg/mL
Delphinidin content as percentage of the starting concentration ([2]; 0 h): 100%
Delphinidin content as percentage of the starting concentration ([2]; 1 h): 8.3%
Delphinidin content as percentage of the starting concentration ([2]; 2 h): 6.5%
Delphinidin content as percentage of the starting concentration ([2]; 3 h): 5.6%
Delphinidin content as percentage of the starting concentration ([2]; 4 h): 5.1%
